The source of these data is patent publication US11453683B1, “KRas G12D inhibitors” (Mirati Therapeutics, Inc., priority 2019, dated 2022).

The experiment deals with KRas G12D-mediated phosphorylation of ERK. Description: Inhibition of KRas G12D-mediated phosphorylation of ERK in AGS cells. Particulars: Homo sapiens; AGS cells expressing G12D, 3 hours, phospho-ERK normalized to GAPDH. In kind it is cell-based. The procedure:
Cells were plated in tissue culture treated 96 well plates at a density of 40,000 cells/well and allowed to attach for 12-14 hours. Diluted compounds were then added in a final concentration of 0.5% DMSO. After 3 hours, the medium was removed, 150 μL of 4.0% formaldehyde was added and the plates incubated at room temperature for 20 minutes. The plates were washed with PBS, and permeabilized with 150 μL of ice cold 100% methanol for 10 minutes. Non-specific antibody binding to the plates was blocked using 100 μL Licor blocking buffer (Li-Cor Biotechnology, Lincoln Nebr.) for 1 hour at room temperature.
The amount of phospho-ERK was determined using an antibody specific for the phosphorylated form of ERK and compared to the amount of GAPDH. Primary antibodies used for the detection were added as follows: Phospho-ERK (Cell Signaling cs-9101) diluted 1:500 and GAPDH (Millipore MAB374) diluted 1:5000 in Licor block+0.05% Tween 20. The plates were incubated for 2 hours at room temperature. The plates were washed with PBS+0.05% Tween 20.
Secondary antibodies used to visualize primary antibodies were added as follows: Anti-rabbit-680 diluted 1:1000 and Anti-mouse-800 diluted 1:1000 both in Licor block+0.05% TweeN2O, and were incubated for 1 hour at room temperature. The plates were washed with PBS+0.05% Tween 20. A 100 μL aliquot of PBS was added to each well and the plates were read on a Li-Cor Odyssey CLX plate reader.
The phospho-ERK (Thr202/Tyr204 signal was normalized to the GAPDH signal for each well and percent of DMSO control values were calculated. IC50 values were generated using a 4-parameter fit of the dose response curve

Each structure is given as a SMILES string.

What is called IC50 is the concentration that inhibits the measured activity by half. Low values mean greater potency in that assay, high ones weaker potency in that assay. In turn, `Oc1cc(-c2ncc3c(N4C[C@H]5CC[C@@H](C4)N5)nc(OCC(F)(F)C(F)F)nc3c2F)c2ccccc2c1` [Example 52, 4-(4-((1R,5S)-3,8-diazabicyclo[3.2.1]octan-3-yl)-8-fluoro-2-(2,2,3,3-tetrafluoropropoxy)pyrido[4,3-d]pyrimidin-7-yl)naphthalen-2-ol] displayed an IC50 of 8380 nM.
In the case of `CO[C@H]1CN2CCC[C@]2(COc2nc(N3CC4CCC(C3)N4)c3cnc(-c4cc(O)cc5cccc(F)c45)c(F)c3n2)C1` (stereo in doubt) [Example 406, 4-(4-((1R,5S)-3,8-diazabicyclo[3.2.1]octan-3-yl)-8-fluoro-2-((2-methoxytetrahydro-1H-pyrrolizin-7a(5H)-yl)methoxy)pyrido[4,3-d]pyrimidin-7-yl)-5-fluoronaphthalen-2-ol], the IC50 is 440 nM.
As for `CNC(=O)O[C@@H]1CN2CCC[C@]2(COc2nc(N3C[C@H]4CC[C@@H](C3)N4)c3cnc(-c4cccc5cccc(Cl)c45)c(F)c3n2)C1` [Example 435, (2S,7aR)-7a-(((4-((1R,5S)-3,8-diazabicyclo[3.2.1]octan-3-yl)-7-(8-chloronaphthalen-1-yl)-8-fluoropyrido[4,3-d]pyrimidin-2-yl)oxy)methyl)hexahydro-1H-pyrrolizin-2-yl methylcarbamate], the IC50 came to 1820 nM.
With `C[C@H]1C[C@@H]1c1c(Cl)cc(O)cc1-c1ncc2c(N3C[C@H]4CC[C@@H](C3)N4)nc(OC[C@@]34CCCN3C[C@H](F)C4)nc2c1F` [Example 451, 3-(4-((1R,5S)-3,8-diazabicyclo[3.2.1]octan-3-yl)-8-fluoro-2-(((2R,7aS)-2-fluorotetrahydro-1H-pyrrolizin-7a(5H)-yl)methoxy)pyrido[4,3-d]pyrimidin-7-yl)-5-chloro-4-((1S,2S)-2-methylcyclopropyl)phenol] the figure was 78.3 nM.
`Cn1ccnc1CCOc1nc(N2C[C@H]3CC[C@@H](C2)N3)c2cnc(-c3cccc4cccc(Cl)c34)c(F)c2n1` [Example 114, 4-((1R,5S)-3,8-diazabicyclo[3.2.1]octan-3-yl)-7-(8-chloronaphthalen-1-yl)-8-fluoro-2-(2-(1-methyl-1H-imidazol-2-yl)ethoxy)pyrido[4,3-d]pyrimidine] displayed an IC50 of 10300 nM.
With `Fc1ccc2cccc(-c3ncc4c(N5CC6CCC(C5)N6)nc(OC[C@@]56CCCN5C[C@H](F)C6)nc4c3F)c2c1Cl` (racemic) [Example 336, 4-((1R,5S)-3,8-diazabicyclo[3.2.1]octan-3-yl)-7-(8-chloro-7-fluoronaphthalen-1-yl)-8-fluoro-2-((2-fluorotetrahydro-1H-pyrrolizin-7a(5H)-yl)methoxy)pyrido[4,3-d]pyrimidine] the figure was 1060 nM.
With `C#Cc1cccc2cc(O)cc(-c3ncc4c(N5C[C@H]6CC[C@@H](C5)N6)ncnc4c3F)c12` [Example 244, 4-(4-((1R,5S)-3,8-diazabicyclo[3.2.1]octan-3-yl)-8-fluoropyrido[4,3-d]pyrimidin-7-yl)-5-ethynylnaphthalen-2-ol] the figure was 763 nM; with `Oc1cc(-c2ncc3c(N4C[C@H]5CC[C@@H](C4)N5)nc(OC4CCOCC4)nc3c2F)c2ccccc2c1` [Example 72, 4-(4-((1R,5S)-3,8-diazabicyclo[3.2.1]octan-3-yl)-8-fluoro-2-((tetrahydro-2H-pyran-4-yl)oxy)pyrido[4,3-d]pyrimidin-7-yl)naphthalen-2-ol], 7260 nM.
With `NC(=O)Cc1cccc2cccc(-c3ncc4c(N5C[C@H]6CC[C@@H](C5)N6)nc(OCC56CCCN5CCC6)nc4c3F)c12` [Example 240, 2-(8-(4-((1R,5S)-3,8-diazabicyclo[3.2.1]octan-3-yl)-8-fluoro-2-((tetrahydro-1H-pyrrolizin-7a(5H)-yl)methoxy)pyrido[4,3-d]pyrimidin-7-yl)naphthalen-1-yl)acetamide] the figure was over 16700 nM; with `CCc1c(F)ccc2cc(O)cc(-c3ncc4c(N5C[C@H]6CC[C@@H](C5)N6)nc(OC[C@]56CCCN5[C@@H](COC(=O)N(C)C)CC6)nc4c3F)c12` [Example 441, ((3R,7aR)-7a-(((4-((1R,5S)-3,8-diazabicyclo[3.2.1]octan-3-yl)-7-(8-ethyl-7-fluoro-3-hydroxynaphthalen-1-yl)-8-fluoropyrido[4,3-d]pyrimidin-2-yl)oxy)methyl)hexahydro-1H-pyrrolizin-3-yl)methyl dimethylcarbamate], 4.1 nM.
Compound `CC(C)c1c(F)cccc1-c1ncc2c(N3C[C@H]4CC[C@@H](C3)N4)nc(OCC34CCCN3CCC4)nc2c1F` [Example 299, 4-((1R,5S)-3,8-diazabicyclo[3.2.1]octan-3-yl)-8-fluoro-7-(3-fluoro-2-isopropylphenyl)-2-((hexahydro-1H-pyrrolizin-7a-yl)methoxy)pyrido[4,3-d]pyrimidine] displayed an IC50 of over 5560 nM.
With `Oc1cc(-c2ncc3c(N4CC5CCC(C4)N5)nc(OCC45CCCN4C(CF)CC5)nc3c2F)c2ccccc2c1` (mixture of isomers) [Example 384, 4-(4-((1R,5S)-3,8-diazabicyclo[3.2.1]octan-3-yl)-8-fluoro-2-((3-(fluoromethyl)tetrahydro-1H-pyrrolizin-7a(5H)-yl)methoxy)pyrido[4,3-d]pyrimidin-7-yl)naphthalen-2-ol (mixture of isomers)] the figure was 398 nM; with `COC(c1ccc(O)cc1-c1ncc2c(N3CC4CCC(C3)N4)nc(OC[C@@]34CCCN3C[C@H](F)C4)nc2c1F)C(F)(F)F` (stereo in doubt) [Example 390, 3-(4-((1R,5S)-3,8-diazabicyclo[3.2.1]octan-3-yl)-8-fluoro-2-((2-fluorotetrahydro-1H-pyrrolizin-7a(5H)-yl)methoxy)pyrido[4,3-d]pyrimidin-7-yl)-4-(2,2,2-trifluoro-1-methoxyethyl)phenol], 6110 nM; with `CC(C)c1ccc(O)cc1-c1ncc2c(N3CC4CCC(C3)N4)nc(OC[C@@]34CCCN3C[C@H](F)C4)nc2c1F` (stereo in doubt) [Example 399, 3-(4-((1R,5S)-3,8-diazabicyclo[3.2.1]octan-3-yl)-8-fluoro-2-((2-fluorotetrahydro-1H-pyrrolizin-7a(5H)-yl)methoxy)pyrido[4,3-d]pyrimidin-7-yl)-4-isopropylphenol], 510 nM.
In turn, `C#Cc1cccc2cc(O)cc(-c3ncc4c(N5C[C@H]6CC[C@@H](C5)N6)nc(OC[C@@]56CCCN5C[C@H](F)C6)nc4c3F)c12` [Example 243, 4-(4-((1R,5S)-3,8-diazabicyclo[3.2.1]octan-3-yl)-8-fluoro-2-(((2R,7aS)-2-fluorohexahydro-1H-pyrrolizin-7a-yl)methoxy)pyrido[4,3-d]pyrimidin-7-yl)-5-ethynylnaphthalen-2-ol] returned an IC50 of 0.8 nM.
To `Fc1c(-c2cccc3cccc(OC(F)F)c23)ncc2c(N3C[C@H]4CC[C@@H](C3)N4)nc(OCC34CCCN3CCC4)nc12` [Example 346, 4-((1R,5S)-3,8-diazabicyclo[3.2.1]octan-3-yl)-7-(8-(difluoromethoxy)naphthalen-1-yl)-8-fluoro-2-((tetrahydro-1H-pyrrolizin-7a(5H)-yl)methoxy)pyrido[4,3-d]pyrimidine] belongs 1350 nM; to `Cc1ccc2[nH]ncc2c1-c1ncc2c(N3C[C@H]4CC[C@@H](C3)N4)nc(OCC34CCCN3CCC4)nc2c1F` [Example 332, 4-((1R,5S)-3,8-diazabicyclo[3.2.1]octan-3-yl)-8-fluoro-7-(5-methyl-1H-indazol-4-yl)-2-((tetrahydro-1H-pyrrolizin-7a(5H)-yl)methoxy)pyrido[4,3-d]pyrimidine], over 16700 nM; to `CC(C)c1c(Cl)cccc1-c1ncc2c(N3C[C@H]4CC[C@@H](C3)N4)nc(OCC34CCCN3CCC4)nc2c1F` [Example 298, 4-((1R,5S)-3,8-diazabicyclo[3.2.1]octan-3-yl)-7-(3-chloro-2-isopropylphenyl)-8-fluoro-2-((hexahydro-1H-pyrrolizin-7a-yl)methoxy)pyrido[4,3-d]pyrimidine], 1230 nM.
`CN1CCC[C@H]1COc1nc(N2C[C@H]3CC[C@@H](C2)N3)c2cnc(-c3cc(O)c(Br)c4ccccc34)c(F)c2n1` [Example 14, 4-(4-((1R,5S)-3,8-diazabicyclo[3.2.1]octan-3-yl)-8-fluoro-2-(((S)-1-methylpyrrolidin-2-yl)methoxy)pyrido[4,3-d]pyrimidin-7-yl)-1-bromonaphthalen-2-ol] gave a concentration for half-maximal inhibition (IC50) of 4840 nM.
To `COC[C@H]1CC[C@@]2(COc3nc(N4CC5CCC(C4)N5)c4cnc(-c5cc(O)cc6ccccc56)c(F)c4n3)CCCN12` (stereo in doubt) [Example 389, 4-(4-((1R,5S)-3,8-diazabicyclo[3.2.1]octan-3-yl)-8-fluoro-2-((3-(methoxymethyl)tetrahydro-1H-pyrrolizin-7a(5H)-yl)methoxy)pyrido[4,3-d]pyrimidin-7-yl)naphthalen-2-ol] belongs 781 nM; to `Oc1cc(-c2ncc3c(N4C[C@H]5CC[C@@H](C4)N5)nc(OCCc4ccccn4)nc3c2F)c2ccccc2c1` [Example 4, 4-(4-((1R,5S)-3,8-diazabicyclo[3.2.1]octan-3-yl)-8-fluoro-2-(2-(pyridin-2-yl)ethoxy)pyrido[4,3-d]pyrimidin-7-yl)naphthalen-2-ol], 8530 nM.
